Source: ChEMBL document CHEMBL1201862, “PubChem BioAssay data set” (2004)
Values belong to the molecule of their own block, whether it stands above or below them. Calls of active or inactive are those of the source.

How the values were obtained:
Caspase-8 = Caspase-8 (Homo sapiens, UniProt Q14790); experiment: inhibitors of purified CASP8 protease – biochemical, Z-IETD-R110 fluorescence, cherry-picked samples, selectivity assay for caspase-6 inhibitor project, dose response (AID 743294)
[1] = molecular target: T1, Sentrin-specific protease 6 (Homo sapiens, UniProt Q9GZR1); experiment: SAR Analysis of small molecule inhibitors of Sentrin-specific protease 6 (SENP6) using a Luminescent assay. [Related pubchem assays (depositor defined):AID2582, AID2599]; type: functional
T1 sequence (Q9GZR1 whole entry): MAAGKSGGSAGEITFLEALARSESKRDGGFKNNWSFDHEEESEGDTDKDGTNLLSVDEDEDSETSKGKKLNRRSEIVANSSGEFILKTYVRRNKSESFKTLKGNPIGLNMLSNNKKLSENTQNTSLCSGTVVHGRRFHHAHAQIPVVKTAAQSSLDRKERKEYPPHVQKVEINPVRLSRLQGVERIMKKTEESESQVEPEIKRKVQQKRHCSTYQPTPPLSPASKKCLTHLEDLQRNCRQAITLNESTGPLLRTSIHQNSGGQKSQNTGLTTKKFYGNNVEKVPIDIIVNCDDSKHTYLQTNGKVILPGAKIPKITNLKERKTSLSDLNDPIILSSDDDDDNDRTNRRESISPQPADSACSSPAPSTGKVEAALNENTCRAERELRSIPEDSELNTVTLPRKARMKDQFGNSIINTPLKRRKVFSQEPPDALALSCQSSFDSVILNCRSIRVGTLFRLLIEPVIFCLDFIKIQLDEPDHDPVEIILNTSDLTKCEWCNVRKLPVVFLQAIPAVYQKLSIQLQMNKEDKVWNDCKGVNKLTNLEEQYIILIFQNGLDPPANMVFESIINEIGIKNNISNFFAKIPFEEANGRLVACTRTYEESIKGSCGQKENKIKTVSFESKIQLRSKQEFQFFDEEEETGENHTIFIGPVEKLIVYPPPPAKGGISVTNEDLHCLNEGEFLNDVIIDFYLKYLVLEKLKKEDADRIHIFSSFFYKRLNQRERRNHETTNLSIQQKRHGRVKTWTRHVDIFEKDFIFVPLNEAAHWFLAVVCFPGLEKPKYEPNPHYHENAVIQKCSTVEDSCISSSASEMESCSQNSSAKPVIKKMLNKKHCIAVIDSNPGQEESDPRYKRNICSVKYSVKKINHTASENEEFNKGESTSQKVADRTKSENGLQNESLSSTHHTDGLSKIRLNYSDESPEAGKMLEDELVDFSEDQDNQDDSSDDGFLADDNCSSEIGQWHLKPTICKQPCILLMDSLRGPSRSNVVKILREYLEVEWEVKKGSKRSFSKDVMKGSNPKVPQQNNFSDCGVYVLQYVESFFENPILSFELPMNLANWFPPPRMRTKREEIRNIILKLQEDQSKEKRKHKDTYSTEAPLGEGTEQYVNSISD

[2] = molecular target: Mitogen-activated protein kinase 8 (Homo sapiens, UniProt P45983); type: functional;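 further: value comes from one member of a kinome-wide kinase profiling panel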
[3] = molecular target: T2, Serine/threonine-protein kinase TAO1 (Homo sapiens, UniProt Q7L7X3); type: functional
T2 sequence (Q7L7X3 whole entry): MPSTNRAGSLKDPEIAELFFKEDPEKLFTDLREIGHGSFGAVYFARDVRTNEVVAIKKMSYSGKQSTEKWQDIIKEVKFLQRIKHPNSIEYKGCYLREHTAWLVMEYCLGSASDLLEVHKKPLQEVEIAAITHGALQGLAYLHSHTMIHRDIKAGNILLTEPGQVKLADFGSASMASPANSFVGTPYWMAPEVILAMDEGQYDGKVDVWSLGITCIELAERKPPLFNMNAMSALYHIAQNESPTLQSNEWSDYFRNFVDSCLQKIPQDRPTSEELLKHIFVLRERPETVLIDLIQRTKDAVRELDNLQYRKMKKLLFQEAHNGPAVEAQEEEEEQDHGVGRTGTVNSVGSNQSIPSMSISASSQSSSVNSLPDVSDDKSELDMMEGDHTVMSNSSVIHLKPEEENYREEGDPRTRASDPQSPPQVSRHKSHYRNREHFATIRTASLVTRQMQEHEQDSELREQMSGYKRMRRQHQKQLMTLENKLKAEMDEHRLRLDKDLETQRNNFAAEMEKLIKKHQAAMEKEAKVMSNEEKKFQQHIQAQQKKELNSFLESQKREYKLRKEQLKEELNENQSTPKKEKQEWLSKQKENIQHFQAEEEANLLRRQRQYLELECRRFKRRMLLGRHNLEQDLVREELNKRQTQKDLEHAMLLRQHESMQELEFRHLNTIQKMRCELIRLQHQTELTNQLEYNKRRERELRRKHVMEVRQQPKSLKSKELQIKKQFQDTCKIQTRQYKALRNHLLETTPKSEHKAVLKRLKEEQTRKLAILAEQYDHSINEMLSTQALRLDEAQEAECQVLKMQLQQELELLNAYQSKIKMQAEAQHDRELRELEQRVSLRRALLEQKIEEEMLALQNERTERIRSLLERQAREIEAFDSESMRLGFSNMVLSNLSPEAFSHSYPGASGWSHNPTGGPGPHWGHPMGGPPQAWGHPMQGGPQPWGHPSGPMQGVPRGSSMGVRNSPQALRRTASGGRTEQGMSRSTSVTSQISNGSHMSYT

[4] = molecular target: cAMP-dependent protein kinase catalytic subunit PRKX (Homo sapiens, UniProt P51817); type: functional
[5] = viability of HCT116 lacking mutant beta-catenin – cell-based, human colon tumor, dose response (AID 1045); type: functional;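 further: HCT116 colon tumor cells with beta catenin knocked out; cells exposed to compound for 60 hours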
[6] = toxicity toward HepG2 hepatoma cells – cell-based, dry powder samples, cytotoxicity control, dose response (AID 720568); type: functional
[7] = molecular target: Serine/threonine-protein phosphatase (Homo sapiens, UniProt Q9BPW0); experiment: inhibition of protein phosphatase 5 activity – biochemical, fluorescence, dose response (AID 2395)
Troponin, cardiac muscle = Troponin, cardiac muscle (Homo sapiens, UniProt P19429+P45379+P63316); experiment: compounds desensitizing RTF to calcium – biochemical, fluorescence, cardiac regulated thin filaments, triplicate IC50, dose response (AID 504742); type: protein-complex assay

Sequence of Mitogen-activated protein kinase 8 (P45983 whole entry): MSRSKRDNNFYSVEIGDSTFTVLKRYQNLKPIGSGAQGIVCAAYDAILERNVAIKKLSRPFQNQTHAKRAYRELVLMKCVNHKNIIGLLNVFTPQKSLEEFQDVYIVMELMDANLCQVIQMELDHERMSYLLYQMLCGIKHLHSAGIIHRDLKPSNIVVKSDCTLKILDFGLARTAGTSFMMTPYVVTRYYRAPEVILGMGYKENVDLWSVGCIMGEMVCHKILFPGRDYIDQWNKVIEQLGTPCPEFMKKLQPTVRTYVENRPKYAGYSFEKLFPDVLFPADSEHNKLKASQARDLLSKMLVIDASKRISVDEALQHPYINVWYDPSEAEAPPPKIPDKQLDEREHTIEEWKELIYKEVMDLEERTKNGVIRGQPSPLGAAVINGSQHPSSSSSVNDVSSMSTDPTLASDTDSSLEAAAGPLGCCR
Sequence of cAMP-dependent protein kinase catalytic subunit PRKX (P51817 whole entry): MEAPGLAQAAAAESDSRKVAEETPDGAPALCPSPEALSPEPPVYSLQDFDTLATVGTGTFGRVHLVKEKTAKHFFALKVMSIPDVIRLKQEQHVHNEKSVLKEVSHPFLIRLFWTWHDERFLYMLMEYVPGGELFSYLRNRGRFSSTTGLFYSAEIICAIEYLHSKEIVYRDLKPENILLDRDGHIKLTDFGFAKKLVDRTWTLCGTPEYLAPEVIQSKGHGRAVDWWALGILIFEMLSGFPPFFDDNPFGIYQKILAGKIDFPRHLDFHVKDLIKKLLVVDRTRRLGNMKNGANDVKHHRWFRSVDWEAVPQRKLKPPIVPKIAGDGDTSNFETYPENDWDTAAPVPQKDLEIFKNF
Sequence of Serine/threonine-protein phosphatase (Q9BPW0 whole entry): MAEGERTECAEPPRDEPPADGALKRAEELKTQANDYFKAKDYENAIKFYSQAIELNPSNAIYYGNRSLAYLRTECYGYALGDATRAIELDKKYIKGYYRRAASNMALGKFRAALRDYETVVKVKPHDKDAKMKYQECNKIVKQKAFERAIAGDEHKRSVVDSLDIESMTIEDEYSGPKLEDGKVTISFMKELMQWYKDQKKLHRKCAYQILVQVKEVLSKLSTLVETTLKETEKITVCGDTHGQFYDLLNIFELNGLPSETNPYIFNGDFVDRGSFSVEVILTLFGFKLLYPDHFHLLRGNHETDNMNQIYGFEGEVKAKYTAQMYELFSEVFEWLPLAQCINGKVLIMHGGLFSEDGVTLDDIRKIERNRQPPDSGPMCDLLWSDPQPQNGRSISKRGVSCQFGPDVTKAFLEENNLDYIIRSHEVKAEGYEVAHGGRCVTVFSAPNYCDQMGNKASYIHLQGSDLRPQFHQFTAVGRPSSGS
Sequence of Caspase-8 (Q14790 217-374 limits assumed): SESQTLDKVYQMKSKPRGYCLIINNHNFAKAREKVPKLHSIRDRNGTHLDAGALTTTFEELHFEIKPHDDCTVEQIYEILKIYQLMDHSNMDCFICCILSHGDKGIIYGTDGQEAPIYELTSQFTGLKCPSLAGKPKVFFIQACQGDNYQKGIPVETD
Sequence of Caspase-8 (Q14790 385-479 limits assumed): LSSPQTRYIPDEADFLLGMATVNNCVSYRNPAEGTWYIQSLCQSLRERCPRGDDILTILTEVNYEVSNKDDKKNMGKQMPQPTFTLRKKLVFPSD

Compound: Oc1nc(Nc2ccc(F)cc2)cc2ccccc12
AC50 (Caspase-8): 2.48 µM (active)

Compound: CCN(CC)CCOc1ccc2c(c1)C(=NNC(=O)c1ccccn1)c1cc(OCCN(CC)CC)ccc1-2
EC50 [5]: 2.17 µM (active)
AC50 [6]: 6.14 µM (active)

Compound: O=C(O)c1ccc2c(c1)[C@@H]1C=CC[C@@H]1[C@H](c1ccccn1)N2
IC50 (Troponin, cardiac muscle): > 71.5 µM (inactive)

More lines, now with the values ahead:

IC50 [1]: 40.4 µM (active)
Compound: COc1cc2cc(NC(C)=O)cc(NCc3ccccc3)c2cc1OC

Ki [2]: 1.26 µM (active)
Ki [3]: 0.251 µM (active)
Ki [4]: 0.0398 µM (active)
Compound: NC(COc1cncc(-c2ccc3c(c2)C(=Cc2ccc[nH]2)C(=O)N3)c1)Cc1ccccc1 (stereo not drawn)

Ki [2]: > 5.01 µM (inactive)
Ki [3]: 0.398 µM (active)
Ki [4]: 2 µM (active)
Compound: O=C1Nc2cc(-c3ccc(O)cc3)ccc2C1=Cc1ccc[nH]1

IC50 [7]: 6.1 µM (active)
IC50 [1]: 11.3 µM (active)
Compound: CN(C)c1cc(N/N=C\c2ccccc2)nc(N(C)C)n1
